Patent US20040106682A1, “Novel benzylideneamino guanidines and their uses as ligands to the melnocortin receptors” (priority 2001, published 2004)
Where a name gives a salt, the structure may show the parent alone.

How the values were obtained:
MC1 receptor = biological target: T1, MC1 receptor (Mus musculus, UniProt Q01727); assay: Affinity for the MC1-receptor, 125I-NDP-αMSH binding assay; conditions: B16 mouse melanoma cells endogenously expressing mouse MC1, displacement of 125I-NDP-MSH, nb = non-binding, i.e. no affinity; for Ki: read-out: Affinity for MC-receptors, Ki, MC1
T1 construct: B16 mouse melanoma cells were used, which endogenously express the (mouse) MC1 receptor; endogenous in cells; host or cells: B16 mouse melanoma cells
T1 sequence (Q01727 whole entry): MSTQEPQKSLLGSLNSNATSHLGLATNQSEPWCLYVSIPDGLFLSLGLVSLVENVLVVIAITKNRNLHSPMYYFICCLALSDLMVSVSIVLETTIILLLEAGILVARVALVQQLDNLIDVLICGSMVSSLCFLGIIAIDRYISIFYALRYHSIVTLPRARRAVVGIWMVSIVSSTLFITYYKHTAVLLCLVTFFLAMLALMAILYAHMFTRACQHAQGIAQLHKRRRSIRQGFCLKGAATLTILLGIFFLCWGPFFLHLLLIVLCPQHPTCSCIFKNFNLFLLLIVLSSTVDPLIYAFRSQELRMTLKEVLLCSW
Method: Test 1. Affinity for the MC1-receptor
The binding assay was carried out essentially as described by Lunec et al., Melanoma Res. 1992; 2; 5-12 using I^125-NDP-αMSH as ligand.
(§1) Essentially, the affinity of the compounds for the different melanocortin receptors were determined by using either insect cells (Sf9) or COS cells, which were transfected with recombinant human MC3, MC4 or MC5 receptors. For the determination of the affinity for the MC1 receptor, B16 mouse melanoma cells were used, which endogenously express the (mouse) MC1 receptor.
(§2) The compounds were tested at different concentrations for their ability to displace a ^125I-labelled NDP-MSH from the respective receptor. Incubation was performed in 96-well plates, using 50,000 cells/well (Sf9 or COS cells) up to 200,000 cells/well (mouse melanoma cells).
(§3) The test compound or standard (NDP-MSH) was added in an appropriate concentration (generally between 10^−4 M and 10^−12 M) together with labelled tracer (approx. 50,000 cpm/well) and incubated for 2 hours (at room temperature for Sf9 cells and at +37° C. for COS cells and mouse melanoma cells).
(§4) After the incubation, the cells were washed twice to get rid of the excess tracer and compound, and the cells were lysed with 0.1 M NaOH. The lysate was counted in a gamma-counter, binding was calculated and the affinity determined.

[1] = biological target: T2, recombinant human MC4 receptor (Homo sapiens, UniProt P32245); assay: Affinity for the MC4-receptors, 125I-NDP-αMSH binding assay; conditions: Sf9 or COS cells transfected with recombinant human MC4, displacement of 125I-NDP-MSH, nb = non-binding, i.e. no affinity; for Ki: read-out: Affinity for MC-receptors, Ki, MC4
T2 construct: expressed in transfected cells; host or cells: Sf9 insect cells or COS cells
T2 sequence (P32245 whole entry): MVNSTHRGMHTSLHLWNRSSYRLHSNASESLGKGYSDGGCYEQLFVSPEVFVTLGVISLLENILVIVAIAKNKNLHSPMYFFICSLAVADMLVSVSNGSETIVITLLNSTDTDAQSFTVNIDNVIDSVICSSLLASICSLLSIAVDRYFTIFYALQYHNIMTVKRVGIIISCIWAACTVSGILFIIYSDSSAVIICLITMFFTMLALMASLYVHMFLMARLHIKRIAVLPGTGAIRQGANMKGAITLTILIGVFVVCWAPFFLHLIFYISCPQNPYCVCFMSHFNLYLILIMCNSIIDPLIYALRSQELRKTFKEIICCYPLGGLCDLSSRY
Method: (§5) Test 2. Affinity for the MC3-receptors, the MC4receptors and the MC5-receptors
(§6) The binding assays were carried out essentially as described by Szardenings et al., J. Biol. Chem. 1997; 272; 27943-27948 and Schiöth et al., FEBS Lett. 1997; 410; 223-228 using I^125-NDP-αMSH as ligand.
as §1, §2, §3, §4

[2] = biological target: T3, recombinant human MC3 receptor (Homo sapiens, UniProt P41968); assay: Affinity for the MC3-receptors, 125I-NDP-αMSH binding assay; conditions: Sf9 or COS cells transfected with recombinant human MC3, displacement of 125I-NDP-MSH, nb = non-binding, i.e. no affinity; for Ki: read-out: Affinity for MC-receptors, Ki, MC3
T3 construct: expressed in transfected cells; host or cells: Sf9 insect cells or COS cells
T3 sequence (P41968 whole entry): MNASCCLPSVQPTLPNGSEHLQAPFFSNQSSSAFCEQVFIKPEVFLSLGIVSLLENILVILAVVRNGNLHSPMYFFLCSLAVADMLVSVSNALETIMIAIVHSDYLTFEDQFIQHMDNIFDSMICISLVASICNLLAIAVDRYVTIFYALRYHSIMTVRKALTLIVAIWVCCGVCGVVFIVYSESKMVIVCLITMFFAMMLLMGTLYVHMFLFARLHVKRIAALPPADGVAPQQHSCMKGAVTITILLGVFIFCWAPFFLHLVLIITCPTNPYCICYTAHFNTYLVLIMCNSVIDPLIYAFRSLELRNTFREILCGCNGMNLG
Method: as §5, §6, §1, §2, §3, §4

[3] = biological target: T4, recombinant human MC5 receptor (Homo sapiens, UniProt P33032); assay: Affinity for the MC5-receptors, 125I-NDP-αMSH binding assay; conditions: Sf9 or COS cells transfected with recombinant human MC5, displacement of 125I-NDP-MSH, nb = non-binding, i.e. no affinity; for Ki: read-out: Affinity for MC-receptors, Ki, MC5
T4 construct: expressed in transfected cells; host or cells: Sf9 insect cells or COS cells
T4 sequence (P33032 whole entry): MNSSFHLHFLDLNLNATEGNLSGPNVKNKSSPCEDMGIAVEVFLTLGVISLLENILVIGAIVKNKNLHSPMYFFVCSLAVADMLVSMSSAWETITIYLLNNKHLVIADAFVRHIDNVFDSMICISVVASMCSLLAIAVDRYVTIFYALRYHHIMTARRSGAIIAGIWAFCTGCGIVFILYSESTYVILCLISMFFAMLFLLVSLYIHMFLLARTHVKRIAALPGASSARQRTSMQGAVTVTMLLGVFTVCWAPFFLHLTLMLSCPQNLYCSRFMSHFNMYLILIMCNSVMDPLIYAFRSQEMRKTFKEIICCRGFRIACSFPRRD
Method: as §5, §6, §1, §2, §3, §4

melanocortin receptors = assay: Affinity/activity on melanocortin receptors (general statements); type: binding; conditions: statement in words, receptor subtype not specified

N=C(N)NN=Cc1ccc([N+](=O)[O-])c(Cl)c1Cl (as salt: HCl) [1:4, N-(2,3-Dichloro-4-Nitrobenzylideneamino)guanidine]
melting point: 258 to 262 °C

CCOc1cc(C=NNC(=N)N)c([N+](=O)[O-])c(C(F)(F)F)c1 (as salt: HCl) [1:5, N-(5-Ethoxy-2-Nitro-3-Trifluoromethylbenzylideneamino)guanidine]
melting point: 92 to 98 °C

N=C(N)NN=Cc1c(Br)cccc1Br (as salt: HCl) [1:6, N-(2,6-Dibromobenzylideneamino)guanidine]
melting point: 178 to 183 °C

N=C(N)NN=Cc1ccc(I)cc1Br (as salt: HCl) [1:9, N-(2-Bromo-4-Iodobenzylideneamino)guanidine]
melting point: 236 to 239 °C

N=C(N)NN=Cc1cccc(Cl)c1I (as salt: salt) [1:1, N-(3-Chloro-2-Iodobenzylideneamino)guanidine]
melting point: 231 to 232.5 °C

N=C(N)NN=Cc1cc(F)ccc1F (as salt: salt) [1:10, N-(2,5-Difluorobenzylideneamino)guanidine]
melting point: 211 to 212 °C

COc1cccc(OC)c1C=NNC(=N)N (as salt: salt) [1:11, N-(2,6-Dimethoxybenzylideneamino)guanidine]
melting point: 158 to 160 °C

N=C(N)NN=Cc1cccc(O)c1O (as salt: salt) [1:12, N-(2,3-Dihydroxybenzylideneamino)guanidine]
melting point: 223 to 224.5 °C

N=C(N)NN=Cc1ccc(Br)cc1I (as salt: salt) [1:13, N-(4-Bromo-2-iodobenzylideneamino)guanidine]
melting point: 202 to 207 °C

N=C(N)NN=Cc1cccc(Cl)c1I [1:1, N-(3-Chloro-2-Iodobenzylideneamino)guanidine]
Ki (MC1 receptor): 0.5 µM
Ki [1]: 0.01 µM
Ki [2]: 5.8 µM
Ki [3]: 4.9 µM

N=C(N)NN=Cc1ccc([N+](=O)[O-])c(Cl)c1Cl [1:4, N-(2,3-Dichloro-4-Nitrobenzylideneamino)guanidine]
Ki (MC1 receptor): 3.6 µM
Ki [1]: 12.2 µM
Ki [2]: 10.1 µM
Ki [3]: 10.7 µM

N=C(N)NN=Cc1c(Br)cccc1Br [1:6, N-(2,6-Dibromobenzylideneamino)guanidine]
Ki (MC1 receptor): 0.8 µM
Ki [1]: 0.1 µM
Ki [2]: 22.7 µM
Ki [3]: 29.6 µM

N=C(N)N/N=C/c1c(Cl)cccc1Cl [Guanobenz, Guanabenz, reference compound]
Affinity for MC-receptors, Ki, MC1 (MC1 receptor): nb
Affinity for MC-receptors, Ki, MC4 [1]: nb
affinity to the melanocortin receptors (melanocortin receptors): no affinity
Affinity for MC-receptors, Ki, MC3 [2]: nb
Affinity for MC-receptors, Ki, MC5 [3]: nb
